Data published in PMC6004248 (Clinical cancer research : an official journal of the …, 2018).
“And” between values parts separate entries of the source, which are not always exact repeats. Equal values may be shown once. Read-outs that look alike come from different tables or passages of the source.

Legend:
ALK-positive NSCLC [1] = conditions: crizotinib-refractory population; cited from earlier work
[2] = cited from earlier work; for patients who experienced diarrhea: in some studies
ALK-positive NSCLC [3] = conditions: cited from earlier work
wild-type ALK = wild-type ALK (Homo sapiens, UniProt Q9UM73); assay: Biochemical kinase assay
ALK variants = assay: Biochemical kinase assay; conditions: read-out: in vitro IC50s, all evaluated ALK variants; wild-type ALK and 17 ALK variants
ALK F1174 mutant = ALK F1174 mutant (Homo sapiens, UniProt Q9UM73); assay: Biochemical kinase assay
ALK C1156Y mutant = ALK C1156Y mutant (Homo sapiens, UniProt Q9UM73, C1156Y); assay: Biochemical kinase assay
ALK L1196M mutant = ALK L1196M mutant (Homo sapiens, UniProt Q9UM73, L1196M); assay: Biochemical kinase assay
ALK S1206R mutant = ALK S1206R mutant (Homo sapiens, UniProt Q9UM73, S1206R); assay: Biochemical kinase assay
ALK T1151 mutant = ALK T1151 mutant (Homo sapiens, UniProt Q9UM73); assay: Biochemical kinase assay
TPM3-TRKA = TPM3-TRKA (Homo sapiens, UniProt P04629); assay: Biochemical kinase assay
TRKC = TRKC (Homo sapiens, UniProt Q16288); assay: Biochemical kinase assay
GOPC-ROS1 = GOPC-ROS1 (Homo sapiens, UniProt P08922); assay: Biochemical kinase assay
EphA2 = EphA2 (Homo sapiens, UniProt P29317); assay: Biochemical kinase assay
EphA1 = biological target: T1, EphA1 (Homo sapiens, UniProt P21709); assay: Biochemical kinase assay
T1 sequence (P21709 26-976): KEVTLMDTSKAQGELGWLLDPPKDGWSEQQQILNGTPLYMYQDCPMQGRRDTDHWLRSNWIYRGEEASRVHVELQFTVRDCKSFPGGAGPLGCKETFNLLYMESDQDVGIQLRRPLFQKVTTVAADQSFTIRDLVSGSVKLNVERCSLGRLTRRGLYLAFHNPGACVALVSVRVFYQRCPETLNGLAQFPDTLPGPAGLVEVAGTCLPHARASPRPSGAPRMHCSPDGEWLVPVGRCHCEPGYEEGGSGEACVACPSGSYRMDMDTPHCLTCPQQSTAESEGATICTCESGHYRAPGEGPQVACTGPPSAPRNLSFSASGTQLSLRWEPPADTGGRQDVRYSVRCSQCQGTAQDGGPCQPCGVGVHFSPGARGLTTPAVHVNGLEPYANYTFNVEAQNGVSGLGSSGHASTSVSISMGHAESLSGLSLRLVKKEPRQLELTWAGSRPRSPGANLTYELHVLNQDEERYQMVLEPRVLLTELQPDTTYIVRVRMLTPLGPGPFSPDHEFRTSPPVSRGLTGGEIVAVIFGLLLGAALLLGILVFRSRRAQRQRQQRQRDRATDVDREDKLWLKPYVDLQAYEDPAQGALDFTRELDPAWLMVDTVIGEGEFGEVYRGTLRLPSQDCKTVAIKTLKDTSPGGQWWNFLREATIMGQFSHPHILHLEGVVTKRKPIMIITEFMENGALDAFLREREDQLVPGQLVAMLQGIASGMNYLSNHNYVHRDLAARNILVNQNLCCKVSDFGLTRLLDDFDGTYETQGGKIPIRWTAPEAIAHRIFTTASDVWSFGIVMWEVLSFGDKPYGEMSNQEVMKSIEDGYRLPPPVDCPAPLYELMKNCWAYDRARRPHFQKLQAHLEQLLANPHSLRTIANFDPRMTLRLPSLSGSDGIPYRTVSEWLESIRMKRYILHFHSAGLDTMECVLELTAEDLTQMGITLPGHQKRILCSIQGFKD

EphB1 = biological target: T2, EphB1 (Homo sapiens, UniProt P54762); assay: Biochemical kinase assay
T2 sequence (P54762 18-984): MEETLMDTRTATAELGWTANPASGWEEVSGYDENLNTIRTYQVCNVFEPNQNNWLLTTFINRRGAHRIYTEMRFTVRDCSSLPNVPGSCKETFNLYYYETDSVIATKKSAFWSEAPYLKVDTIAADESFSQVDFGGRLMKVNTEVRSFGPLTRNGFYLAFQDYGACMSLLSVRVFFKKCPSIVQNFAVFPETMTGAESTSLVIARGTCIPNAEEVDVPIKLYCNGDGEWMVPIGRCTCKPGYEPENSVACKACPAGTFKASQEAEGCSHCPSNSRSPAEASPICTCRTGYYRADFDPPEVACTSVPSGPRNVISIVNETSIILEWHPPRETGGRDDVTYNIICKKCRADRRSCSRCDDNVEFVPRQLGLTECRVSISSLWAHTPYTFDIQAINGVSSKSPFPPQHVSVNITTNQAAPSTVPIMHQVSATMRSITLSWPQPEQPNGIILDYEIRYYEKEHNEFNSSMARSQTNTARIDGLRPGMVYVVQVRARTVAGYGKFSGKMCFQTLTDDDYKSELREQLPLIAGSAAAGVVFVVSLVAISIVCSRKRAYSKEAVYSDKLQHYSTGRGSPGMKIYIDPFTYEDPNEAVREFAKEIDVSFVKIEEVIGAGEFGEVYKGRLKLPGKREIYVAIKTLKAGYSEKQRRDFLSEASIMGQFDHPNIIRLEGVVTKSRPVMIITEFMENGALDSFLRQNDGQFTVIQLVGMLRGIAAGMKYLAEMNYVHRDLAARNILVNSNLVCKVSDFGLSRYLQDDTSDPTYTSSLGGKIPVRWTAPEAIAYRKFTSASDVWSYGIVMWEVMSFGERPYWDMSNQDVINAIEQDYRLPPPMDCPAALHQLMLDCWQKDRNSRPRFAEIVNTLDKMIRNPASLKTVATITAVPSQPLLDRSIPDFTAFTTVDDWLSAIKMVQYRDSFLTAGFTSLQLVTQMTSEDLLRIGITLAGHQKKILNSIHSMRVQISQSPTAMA

c-MET = c-MET (Homo sapiens, UniProt P08581); assay: Biochemical kinase assay
Phase I/II trial, safety = type: in vivo
[4] = Phase I/II trial, plasma pharmacokinetics; type: in vivo, human
ALK-positive NSCLC [5] = assay: Phase I/II trial, antitumor activity; type: in vivo, human
[6] = tested on: ALK-positive lung cancer cell lines; conditions: cited from earlier work
[7] = tested on: ALK fusions engineered to have point mutation L1196M; conditions: mutation associated with crizotinib resistance; cited from earlier work
[8] = tested on: ALK fusions engineered to have point mutation C1156Y; conditions: mutation associated with crizotinib resistance; cited from earlier work
[9] = tested on: H3122 lung cancer xenografts (EML4-ALK E13;A20 fusion); conditions: cited from earlier work
[10] = ALK-positive efficacy evaluable patients, ≥200 mg, n=60
[11] = patients with baseline CNS target lesions, n=14, ≥200 mg
[12] = prior crizotinib and at least one second-generation ALK TKI, n=16

Chain of ALK S1206R mutant (Q9UM73 19-1620 S1206R): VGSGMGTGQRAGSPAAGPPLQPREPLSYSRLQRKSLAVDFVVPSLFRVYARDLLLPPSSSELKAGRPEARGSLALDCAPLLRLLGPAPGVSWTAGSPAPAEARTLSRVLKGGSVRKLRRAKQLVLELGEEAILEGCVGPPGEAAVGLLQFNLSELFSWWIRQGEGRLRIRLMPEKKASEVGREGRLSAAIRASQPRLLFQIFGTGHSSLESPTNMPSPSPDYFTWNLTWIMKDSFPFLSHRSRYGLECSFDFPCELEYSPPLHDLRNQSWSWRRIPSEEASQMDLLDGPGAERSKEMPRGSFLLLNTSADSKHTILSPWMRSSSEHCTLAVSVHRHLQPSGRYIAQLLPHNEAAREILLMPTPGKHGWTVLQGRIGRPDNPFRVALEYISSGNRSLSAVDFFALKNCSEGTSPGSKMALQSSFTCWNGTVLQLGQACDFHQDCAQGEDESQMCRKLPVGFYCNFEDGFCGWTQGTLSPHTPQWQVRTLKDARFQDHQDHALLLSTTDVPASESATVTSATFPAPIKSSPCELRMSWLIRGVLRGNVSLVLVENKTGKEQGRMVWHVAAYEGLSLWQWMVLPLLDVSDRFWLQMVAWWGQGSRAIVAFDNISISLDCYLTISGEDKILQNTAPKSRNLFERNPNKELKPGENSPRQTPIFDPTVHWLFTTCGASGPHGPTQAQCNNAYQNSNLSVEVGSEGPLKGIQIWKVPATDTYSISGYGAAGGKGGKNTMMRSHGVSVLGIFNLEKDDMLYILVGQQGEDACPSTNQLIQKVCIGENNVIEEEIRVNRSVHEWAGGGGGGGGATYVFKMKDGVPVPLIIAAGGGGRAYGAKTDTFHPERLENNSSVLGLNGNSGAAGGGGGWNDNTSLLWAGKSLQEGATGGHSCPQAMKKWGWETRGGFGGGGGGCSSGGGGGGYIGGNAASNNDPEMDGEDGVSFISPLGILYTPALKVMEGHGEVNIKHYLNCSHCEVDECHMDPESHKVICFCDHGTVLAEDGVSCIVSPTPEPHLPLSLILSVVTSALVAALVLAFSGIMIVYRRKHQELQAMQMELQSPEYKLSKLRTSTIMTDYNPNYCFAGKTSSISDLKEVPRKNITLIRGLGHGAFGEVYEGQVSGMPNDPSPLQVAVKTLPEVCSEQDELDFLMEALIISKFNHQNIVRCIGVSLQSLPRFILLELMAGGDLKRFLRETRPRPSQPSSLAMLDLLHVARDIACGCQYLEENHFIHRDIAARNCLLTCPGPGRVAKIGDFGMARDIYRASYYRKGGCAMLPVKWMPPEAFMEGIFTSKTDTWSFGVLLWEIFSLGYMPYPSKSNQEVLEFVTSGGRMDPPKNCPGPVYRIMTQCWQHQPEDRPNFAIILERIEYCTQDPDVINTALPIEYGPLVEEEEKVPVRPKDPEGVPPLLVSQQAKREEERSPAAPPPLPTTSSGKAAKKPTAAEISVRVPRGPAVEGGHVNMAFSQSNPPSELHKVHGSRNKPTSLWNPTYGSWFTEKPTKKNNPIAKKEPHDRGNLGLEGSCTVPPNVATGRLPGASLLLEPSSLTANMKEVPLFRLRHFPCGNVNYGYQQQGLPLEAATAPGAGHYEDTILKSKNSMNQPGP
Chain of ALK L1196M mutant (Q9UM73 19-1620 L1196M): as the sequence (Q9UM73 19-1620 S1206R) above, with L1178M, R1188S counted along it
Chain of c-MET (P08581 25-1390): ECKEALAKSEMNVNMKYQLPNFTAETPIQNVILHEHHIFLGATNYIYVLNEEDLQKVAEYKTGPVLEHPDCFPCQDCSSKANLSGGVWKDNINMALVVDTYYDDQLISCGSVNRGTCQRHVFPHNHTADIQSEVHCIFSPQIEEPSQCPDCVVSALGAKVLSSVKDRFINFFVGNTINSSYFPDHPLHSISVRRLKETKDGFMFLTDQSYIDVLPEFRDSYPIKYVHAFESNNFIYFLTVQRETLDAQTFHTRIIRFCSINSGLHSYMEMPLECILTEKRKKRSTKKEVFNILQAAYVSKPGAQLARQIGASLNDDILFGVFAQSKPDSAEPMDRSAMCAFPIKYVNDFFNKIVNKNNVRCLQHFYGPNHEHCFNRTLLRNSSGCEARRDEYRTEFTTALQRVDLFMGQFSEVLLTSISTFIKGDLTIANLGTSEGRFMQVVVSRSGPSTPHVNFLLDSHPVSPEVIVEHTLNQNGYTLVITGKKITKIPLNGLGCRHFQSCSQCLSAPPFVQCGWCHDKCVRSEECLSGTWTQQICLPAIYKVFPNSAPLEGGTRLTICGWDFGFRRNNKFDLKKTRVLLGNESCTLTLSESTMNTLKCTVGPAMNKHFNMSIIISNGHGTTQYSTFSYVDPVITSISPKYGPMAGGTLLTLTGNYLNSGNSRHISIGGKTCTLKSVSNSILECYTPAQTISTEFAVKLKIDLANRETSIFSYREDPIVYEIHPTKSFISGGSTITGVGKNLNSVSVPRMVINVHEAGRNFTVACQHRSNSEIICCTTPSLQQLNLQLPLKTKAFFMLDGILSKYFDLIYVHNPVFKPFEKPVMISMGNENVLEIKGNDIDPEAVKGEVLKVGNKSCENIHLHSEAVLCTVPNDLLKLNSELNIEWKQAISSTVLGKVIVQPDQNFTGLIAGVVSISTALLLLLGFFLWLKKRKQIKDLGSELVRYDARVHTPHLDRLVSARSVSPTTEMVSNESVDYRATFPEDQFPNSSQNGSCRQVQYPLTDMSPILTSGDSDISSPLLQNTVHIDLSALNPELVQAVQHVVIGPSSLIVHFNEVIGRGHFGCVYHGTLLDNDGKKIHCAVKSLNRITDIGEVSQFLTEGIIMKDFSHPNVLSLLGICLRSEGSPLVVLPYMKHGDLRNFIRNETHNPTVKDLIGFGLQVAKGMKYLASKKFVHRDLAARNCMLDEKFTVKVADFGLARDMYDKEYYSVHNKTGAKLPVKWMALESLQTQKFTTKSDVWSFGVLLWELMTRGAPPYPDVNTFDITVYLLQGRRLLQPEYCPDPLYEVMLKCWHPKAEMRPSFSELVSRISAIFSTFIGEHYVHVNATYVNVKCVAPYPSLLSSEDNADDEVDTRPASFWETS
Chain of GOPC-ROS1 (P08922 1881-2347, other chains not shown): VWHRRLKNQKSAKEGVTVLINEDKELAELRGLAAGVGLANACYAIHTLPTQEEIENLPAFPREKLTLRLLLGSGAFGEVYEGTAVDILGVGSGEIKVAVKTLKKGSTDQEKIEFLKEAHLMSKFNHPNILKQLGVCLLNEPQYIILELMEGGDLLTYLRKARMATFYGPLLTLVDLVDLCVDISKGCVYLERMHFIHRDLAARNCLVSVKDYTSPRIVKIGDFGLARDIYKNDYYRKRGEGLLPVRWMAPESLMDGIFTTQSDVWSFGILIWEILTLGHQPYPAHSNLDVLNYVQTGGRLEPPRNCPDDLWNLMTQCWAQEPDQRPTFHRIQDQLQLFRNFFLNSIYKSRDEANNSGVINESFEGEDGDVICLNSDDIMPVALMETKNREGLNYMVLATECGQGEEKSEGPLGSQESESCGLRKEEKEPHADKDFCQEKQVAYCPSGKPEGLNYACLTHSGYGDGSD
Chain of wild-type ALK (Q9UM73 19-1620): as the sequence (Q9UM73 19-1620 S1206R) above, with R1188S counted along it
Chain of EphA2 (P29317 24-976): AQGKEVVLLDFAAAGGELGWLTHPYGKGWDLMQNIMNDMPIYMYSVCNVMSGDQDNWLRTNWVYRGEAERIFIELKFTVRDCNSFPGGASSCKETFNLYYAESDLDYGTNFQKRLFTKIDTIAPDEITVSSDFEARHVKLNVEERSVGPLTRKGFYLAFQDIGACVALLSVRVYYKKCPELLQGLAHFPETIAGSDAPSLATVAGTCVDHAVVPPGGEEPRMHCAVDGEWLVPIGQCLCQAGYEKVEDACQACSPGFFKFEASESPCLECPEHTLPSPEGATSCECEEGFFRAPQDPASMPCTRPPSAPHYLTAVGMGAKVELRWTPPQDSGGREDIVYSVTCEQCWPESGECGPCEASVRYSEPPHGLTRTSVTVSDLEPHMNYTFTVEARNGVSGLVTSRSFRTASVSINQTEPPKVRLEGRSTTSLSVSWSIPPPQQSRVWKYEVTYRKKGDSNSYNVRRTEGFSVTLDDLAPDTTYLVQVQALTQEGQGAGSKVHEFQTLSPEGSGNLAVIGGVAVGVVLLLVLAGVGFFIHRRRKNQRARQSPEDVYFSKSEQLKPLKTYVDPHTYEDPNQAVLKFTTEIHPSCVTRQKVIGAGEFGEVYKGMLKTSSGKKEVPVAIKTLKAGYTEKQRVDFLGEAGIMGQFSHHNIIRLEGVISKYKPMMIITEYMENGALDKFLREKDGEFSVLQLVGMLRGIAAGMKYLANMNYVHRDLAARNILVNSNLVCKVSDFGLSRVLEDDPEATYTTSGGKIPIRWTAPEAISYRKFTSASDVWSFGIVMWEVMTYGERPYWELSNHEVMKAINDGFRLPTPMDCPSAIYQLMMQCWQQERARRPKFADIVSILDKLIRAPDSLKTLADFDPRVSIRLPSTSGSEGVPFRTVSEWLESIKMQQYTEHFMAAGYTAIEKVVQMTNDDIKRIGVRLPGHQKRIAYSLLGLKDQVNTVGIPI
Chain of ALK C1156Y mutant (Q9UM73 19-1620 C1156Y): as the sequence (Q9UM73 19-1620 S1206R) above, with C1138Y, R1188S counted along it
Chain of ALK F1174 mutant (Q9UM73 1058-1620, stated change not applied): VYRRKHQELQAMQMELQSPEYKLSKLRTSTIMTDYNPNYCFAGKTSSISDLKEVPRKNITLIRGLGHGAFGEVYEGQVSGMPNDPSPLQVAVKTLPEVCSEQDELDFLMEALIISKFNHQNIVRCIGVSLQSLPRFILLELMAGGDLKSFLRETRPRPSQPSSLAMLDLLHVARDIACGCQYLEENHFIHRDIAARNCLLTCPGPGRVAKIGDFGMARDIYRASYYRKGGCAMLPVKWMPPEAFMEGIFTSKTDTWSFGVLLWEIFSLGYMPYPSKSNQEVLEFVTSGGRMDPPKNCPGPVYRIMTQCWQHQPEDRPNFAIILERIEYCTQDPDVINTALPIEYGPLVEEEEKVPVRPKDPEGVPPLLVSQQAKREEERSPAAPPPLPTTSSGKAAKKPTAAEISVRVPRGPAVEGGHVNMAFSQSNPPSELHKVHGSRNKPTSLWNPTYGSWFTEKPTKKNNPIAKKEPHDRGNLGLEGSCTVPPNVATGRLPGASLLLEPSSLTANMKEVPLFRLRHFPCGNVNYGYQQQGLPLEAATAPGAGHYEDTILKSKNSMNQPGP

**Q.** What does the source list for COc1cc(N2CCC(N3CCN(C)CC3)CC2)ccc1Nc1ncc(Cl)c(Nc2ccccc2P(C)(C)=O)n1 [brigatinib]?
**A.** RR (ALK-positive NSCLC [1]): 54%; median PFS (ALK-positive NSCLC [1]): 12.9 months; patients who experienced diarrhea [2]: 41%

**Q.** For Cc1cc(Nc2ncc(Cl)c(Nc3ccccc3S(=O)(=O)C(C)C)n2)c(OC(C)C)cc1C1CCNCC1 [ceritinib], which patients discontinuing therapy (ALK-positive NSCLC [3]) is on record?
**A.** 10%

**Q.** What about the “patients who experienced a SAE” value (ALK-positive NSCLC [3]) of the same molecule?
**A.** 38%

**Q.** What about the “patients with a dose interruption” value (ALK-positive NSCLC [3]) of the same molecule?
**A.** 66%

**Q.** And the RR (ALK-positive NSCLC [3]; first line)?
**A.** 73%

**Q.** And the intracranial response (ALK-positive NSCLC [3]; first line)?
**A.** 57%

**Q.** What about the “median PFS” value (ALK-positive NSCLC [3]; first line) of the same molecule?
**A.** 16.6 months

**Q.** What about the patients with vomiting [2] of the same molecule?
**A.** majority of patients

**Q.** And the “patients who experienced diarrhea” value [2]?
**A.** 75%

**Q.** What does the source list for C[C@@H]1CN(C(=O)c2ccc(NC(=O)c3cc(O[C@H](C)c4c(Cl)ccc(F)c4Cl)c(N)nn3)cc2)C[C@H](C)N1 [ensartinib]?
**A.** IC50 (wild-type ALK): < 0.4 nM; IC50 (ALK variants): < 4 nM; IC50 (ALK F1174 mutant): < 0.4 nM; IC50 (ALK C1156Y mutant): < 0.4 nM; IC50 (ALK L1196M mutant): < 0.4 nM; IC50 (ALK S1206R mutant): < 0.4 nM; IC50 (ALK T1151 mutant): < 0.4 nM; IC50 (TPM3-TRKA): < 1 nM; IC50 (TRKC): < 1 nM; IC50 (GOPC-ROS1): < 1 nM; IC50 (EphA2): 1 to 10 nM; IC50 (EphA1): 1 to 10 nM; IC50 (EphB1): 1 to 10 nM; IC50 (c-MET): 1 to 10 nM; maximum tolerated dose (Phase I/II trial, safety; 25-250 mg once daily): not reached; deaths related to ensartinib (Phase I/II trial, safety; as considered by the sponsor): no deaths; Constipation, All grades (Phase I/II trial, safety; human, in vivo): 11 (11%); Constipation, Grade ≥3 (Phase I/II trial, safety; human, in vivo): 0; Decreased Appetite, All grades (Phase I/II trial, safety; human, in vivo): 18 (19%); Decreased Appetite, Grade ≥3 (Phase I/II trial, safety; human, in vivo): 1 (1%); Diarrhea, All grades (Phase I/II trial, safety; human, in vivo): 11 (11%); Diarrhea, Grade ≥3 (Phase I/II trial, safety; human, in vivo): 0; Dry Skin, All grades (Phase I/II trial, safety; human, in vivo): 14 (14%); Dry Skin, Grade ≥3 (Phase I/II trial, safety; human, in vivo): 1 (1%); Edema, All grades (Phase I/II trial, safety; human, in vivo): 15 (15%); Edema, Grade ≥3 (Phase I/II trial, safety; human, in vivo): 1 (1%); Elevated aspartate aminotransferase, All grades (Phase I/II trial, safety; human, in vivo): 12 (12%); Elevated aspartate aminotransferase, Grade ≥3 (Phase I/II trial, safety; human, in vivo): 1 (1%); Fatigue, All grades (Phase I/II trial, safety; human, in vivo): 21 (22%); Fatigue, Grade ≥3 (Phase I/II trial, safety; human, in vivo): 2 (2%); Nausea, All grades (Phase I/II trial, safety; human, in vivo): 35 (36%); Nausea, Grade ≥3 (Phase I/II trial, safety; human, in vivo): 1 (1%); Pruritus, All grades (Phase I/II trial, safety; human, in vivo): 27 (28%); Pruritus, Grade ≥3 (Phase I/II trial, safety; human, in vivo): 5 (5%); Rash, All grades (Phase I/II trial, safety; human, in vivo): 54 (56%); Rash, Grade ≥3 (Phase I/II trial, safety; human, in vivo): 12 (12%); Vomiting, All grades (Phase I/II trial, safety; human, in vivo): 25 (26%); Vomiting, Grade ≥3 (Phase I/II trial, safety; human, in vivo): 1 (1%); drug-related diarrhea (Phase I/II trial, safety; human, in vivo): 11%; patients permanently discontinued due to related toxicity (Phase I/II trial, safety; human, in vivo): 5.2%; patients requiring at least one dose reduction due to treatment-related toxicity (Phase I/II trial, safety; human, in vivo): 25%; patients with treatment-related Grade 3-4 AEs (Phase I/II trial, safety; human, in vivo): 23%; treatment-related fatigue (Phase I/II trial, safety; human, in vivo): 22%; treatment-related nausea (Phase I/II trial, safety; human, in vivo): 36%; treatment-related pruritus (Phase I/II trial, safety; human, in vivo): 28%; treatment-related vomiting (Phase I/II trial, safety; human, in vivo): 26%; recommended phase II dose (RP2D) (Phase I/II trial, safety; human, in vivo, 28 days): 225 mg; patients who died while on study (Phase I/II trial, safety; n=97): Five; impact of food on absorption ([4]; 225 mg, food consumed within 30 minutes after taking ensartinib): minimal impact; increase in mean day 22 AUC from 225 to 250 mg ([4]; fasted, 11% increase in dose): 36%; dose proportionality of mean day 22 Cmax and AUC ([4]; fasted, 200-225 mg): slightly more than dose proportionally; dose proportionality of mean day 22 Cmax and AUC ([4]; fasted, 225-250 mg): significantly more than dose proportionally; dose proportionality of mean day 22 Cmax and AUC ([4]; human, in vivo): increased dose proportionally; median DOR (ALK-positive NSCLC [5]; ALK TKI naïve patients, n=12): 24.4 months; median PFS (ALK-positive NSCLC [5]; ALK TKI-naïve patients): 26.2 months; disease control rate (DCR) (ALK-positive NSCLC [5]; ALK TKI-naïve patients, n=15): 86.7%; response rate (RR) (ALK-positive NSCLC [5]; ALK TKI-naïve patients, n=15): 80%; disease control rate (DCR) (ALK-positive NSCLC [5]; [10]): 81.7%; patients with tumor regression (ALK-positive NSCLC [5]; [10]): 80%; median DOR (ALK-positive NSCLC [5]; ALK-positive evaluable patients, n=35): 12.8 months; median PFS (ALK-positive NSCLC [5]; ALK-positive evaluable patients, ≥200 mg): 9.2 months; median DOR (ALK-positive NSCLC [5]; crizotinib and a second-generation ALK TKI, n=4): 4.4 months; intracranial DCR (ALK-positive NSCLC [5]; [11]): 92.9%; intracranial response rate (ALK-positive NSCLC [5]; [11]): 64% and 64.3%; patients with intracranial tumor regression (ALK-positive NSCLC [5]; [11]): 78.6%; disease control rate (DCR) (ALK-positive NSCLC [5]; [12]): 50.0%; response rate (RR) (ALK-positive NSCLC [5]; [12]): 25%; median PFS (ALK-positive NSCLC [5]; prior crizotinib only): 9.0 months; median DOR (ALK-positive NSCLC [5]; prior crizotinib only, n=19): 7.4 months; disease control rate (DCR) (ALK-positive NSCLC [5]; prior crizotinib only, n=29): 96.6%; response rate (RR) (ALK-positive NSCLC [5]; prior crizotinib only, n=29): 69%; median intracranial DOR (ALK-positive NSCLC [5]; responding patients with CNS target lesions at baseline, n=9, ≥200 mg): 5.7 months; potency relative to crizotinib at inhibiting growth [6]: 10 fold; inhibition of ALK fusion with L1196M [7]: potently inhibited; inhibition of ALK fusion with C1156Y [8]: potently inhibited; antitumor activity in xenografts [9]: potent antitumor activity
